Among the data in publication PMC2099433, “The binding site for neohesperidin dihydrochalcone at the human sweet taste receptor” (BMC Structural Biology, 2007) are receptor activation and calcium response values, retold here.

In assay [1] the target is T1, rodent sweet taste receptor (Rattus norvegicus, UniProt Q923K1).
T1 construct: expressed in transfected cells; host or cells: HEK293T cells stably expressing G16Gust44
Kind of assay: Calcium response, rodent sweet taste receptor. In kind it is cell-based. The text has this: (§1) In order to elucidate the putative binding site for NHDC, we cotransfected mixtures of plasmid DNAs for the rat and human TAS1R2 and TAS1R3 receptor subunits in HEK293T cells stably expressing the chimeric G-protein G16Gust44 and measured cellular calcium responses by fluorometry following bath application of various sweet tasting compounds.
(§2) Figure 1 Chemical structure and calcium responses elicited by neohesperidin dihydrochalcone. (A) Structure of neohesperidin dihydrochalcone. Numbers denote carbon atom positions. […]
(§3) The cDNAs for TAS1Rs tagged at the C-terminus with the herpes simplex virus glycoprotein D (HSV) were transiently transfected into HEK293T cells stably expressing the chimeric G-protein subunit G16Gust44 [44] using Lipofectamine 2000 (Invitrogen, Carlsbad, CA) according to the manufacturer's protocol. […] We monitored calcium mobilization following receptor stimulation with sweet tastants by an automated fluorometric imaging plate reader (FLIPR, Molecular Devices, Sunnyvale, CA). […] The obtained calcium signals were corrected for the response of mock transfected cells and normalized to the fluorescence of cells prior to the application of the stimulus using ΔF/F = (F-F0)/F0. Concentration-response curves and EC50 and IC50 values were calculated in SigmaPlot by nonlinear regression using the function f = ((a-d)/(1+(x/EC50)^nH)+d) and f = (a-b)/[1+(x/IC50)^nH]+b, respectively.

Assay [2] concerns the target T2, human TAS1R3 and rat Tas1r2 (Homo sapiens, UniProt Q7RTX0).
T2 construct: expressed in transfected cells; host or cells: HEK293T cells stably expressing G16Gust44
Kind of assay: Calcium response, interspecies subunit combination. To be noted: 1 mM NHDC. The assay is classed as cell-based.
Text: as §1, §2, §3

T2 sequence (Q7RTX0 21-852): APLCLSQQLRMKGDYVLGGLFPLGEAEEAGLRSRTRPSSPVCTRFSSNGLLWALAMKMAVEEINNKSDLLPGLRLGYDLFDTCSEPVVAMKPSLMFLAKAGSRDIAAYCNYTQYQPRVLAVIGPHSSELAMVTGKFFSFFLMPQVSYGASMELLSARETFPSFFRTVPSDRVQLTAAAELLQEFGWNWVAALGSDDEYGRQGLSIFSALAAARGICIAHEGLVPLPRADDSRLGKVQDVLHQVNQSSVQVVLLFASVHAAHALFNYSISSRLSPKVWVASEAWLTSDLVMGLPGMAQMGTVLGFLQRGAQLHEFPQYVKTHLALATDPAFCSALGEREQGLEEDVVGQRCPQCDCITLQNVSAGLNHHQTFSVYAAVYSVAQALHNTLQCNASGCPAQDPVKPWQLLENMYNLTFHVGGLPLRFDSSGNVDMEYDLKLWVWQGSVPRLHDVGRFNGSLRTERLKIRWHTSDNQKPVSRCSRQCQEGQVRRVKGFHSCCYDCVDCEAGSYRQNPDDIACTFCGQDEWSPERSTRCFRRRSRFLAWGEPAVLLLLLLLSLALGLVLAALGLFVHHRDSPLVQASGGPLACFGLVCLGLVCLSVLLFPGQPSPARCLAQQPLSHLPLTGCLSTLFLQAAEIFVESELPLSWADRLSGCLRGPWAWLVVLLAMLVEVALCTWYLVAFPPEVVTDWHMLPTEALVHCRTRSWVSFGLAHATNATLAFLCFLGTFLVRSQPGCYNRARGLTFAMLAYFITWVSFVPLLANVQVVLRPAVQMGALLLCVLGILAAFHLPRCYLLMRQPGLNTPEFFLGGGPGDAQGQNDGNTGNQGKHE
T2 sequence (Q9Z0R7 20-843 partner): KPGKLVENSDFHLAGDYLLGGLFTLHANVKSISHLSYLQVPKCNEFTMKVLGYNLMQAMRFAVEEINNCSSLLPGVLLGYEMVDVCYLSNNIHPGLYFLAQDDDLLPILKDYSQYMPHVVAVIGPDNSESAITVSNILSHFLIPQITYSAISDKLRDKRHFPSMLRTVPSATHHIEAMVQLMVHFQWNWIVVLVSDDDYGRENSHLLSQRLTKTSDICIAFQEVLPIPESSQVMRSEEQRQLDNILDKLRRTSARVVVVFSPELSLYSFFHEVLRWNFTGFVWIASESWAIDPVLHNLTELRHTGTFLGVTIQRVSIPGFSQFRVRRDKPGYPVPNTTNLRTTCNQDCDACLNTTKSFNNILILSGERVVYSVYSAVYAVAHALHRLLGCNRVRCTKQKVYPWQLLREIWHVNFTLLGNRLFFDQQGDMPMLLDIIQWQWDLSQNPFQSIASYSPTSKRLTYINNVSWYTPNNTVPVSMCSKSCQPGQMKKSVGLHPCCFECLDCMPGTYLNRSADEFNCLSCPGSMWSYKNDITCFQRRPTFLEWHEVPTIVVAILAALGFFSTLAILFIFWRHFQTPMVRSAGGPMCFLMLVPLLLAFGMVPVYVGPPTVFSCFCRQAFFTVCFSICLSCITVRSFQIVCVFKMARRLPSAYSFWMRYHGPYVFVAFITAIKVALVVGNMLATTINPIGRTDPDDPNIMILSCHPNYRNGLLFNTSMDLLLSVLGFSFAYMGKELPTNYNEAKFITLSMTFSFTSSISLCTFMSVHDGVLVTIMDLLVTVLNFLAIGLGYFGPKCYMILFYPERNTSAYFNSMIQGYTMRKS
T1 sequence (Q923K1 21-858): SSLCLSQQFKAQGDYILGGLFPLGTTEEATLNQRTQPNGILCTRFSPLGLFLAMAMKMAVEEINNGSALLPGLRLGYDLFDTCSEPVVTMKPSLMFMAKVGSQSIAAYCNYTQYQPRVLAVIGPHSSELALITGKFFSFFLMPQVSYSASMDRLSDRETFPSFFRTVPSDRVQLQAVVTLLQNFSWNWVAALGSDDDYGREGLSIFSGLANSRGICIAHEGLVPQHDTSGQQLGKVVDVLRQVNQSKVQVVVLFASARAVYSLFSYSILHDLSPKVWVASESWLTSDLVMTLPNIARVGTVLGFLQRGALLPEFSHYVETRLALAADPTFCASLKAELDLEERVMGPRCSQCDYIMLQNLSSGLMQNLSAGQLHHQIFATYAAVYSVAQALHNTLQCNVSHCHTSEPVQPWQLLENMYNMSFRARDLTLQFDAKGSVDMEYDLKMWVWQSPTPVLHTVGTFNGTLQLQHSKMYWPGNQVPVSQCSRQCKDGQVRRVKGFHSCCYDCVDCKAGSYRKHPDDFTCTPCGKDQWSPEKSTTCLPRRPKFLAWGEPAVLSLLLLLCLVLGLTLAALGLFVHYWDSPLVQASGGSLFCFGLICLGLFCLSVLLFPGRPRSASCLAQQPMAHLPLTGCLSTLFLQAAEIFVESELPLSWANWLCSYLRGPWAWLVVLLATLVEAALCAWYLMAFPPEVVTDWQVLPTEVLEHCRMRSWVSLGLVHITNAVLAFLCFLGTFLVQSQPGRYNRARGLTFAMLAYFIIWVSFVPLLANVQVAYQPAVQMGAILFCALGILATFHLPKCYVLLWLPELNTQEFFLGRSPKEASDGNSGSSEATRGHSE
T1 sequence (Q9Z0R7 20-843 partner): as the sequence (Q9Z0R7 20-843 partner) above

For `COc1ccc(CCC(=O)c2c(O)cc(O[C@@H]3O[C@H](CO)[C@@H](O)[C@H](O)[C@H]3O[C@@H]3O[C@@H](C)[C@H](O)[C@@H](O)[C@H]3O)cc2O)cc1O` [NHDC, neohesperidin dihydrochalcone], in assay [1], the receptor activation entry is reported as “not the rodent sweet taste receptor”. Moreover, the calcium response entry in assay [2] is “elicited calcium responses”.
